From patent US20120129843A1, “PYRIDYL-THIAZOLYL INHIBITORS OF PRO-MATRIX METALLOPROTEINASE ACTIVATION” (priority 2010, published 2012)
Counter-ions that a name gives are not always drawn.

Tests used:
[1] = biological target: T1, proMMP9(67-444;ΔFnII) (SEQ ID NO:5) (Homo sapiens, UniProt P14780, DEL216-390); test: ThermoFluor binding assay with proMMP9(67-444;ΔFnII)
T1 construct: start methionine (N); made in house; host or cells: E. coli BL21(DE3) RIL
T1 sequence (P14780 with tags, fused parts or gaps DEL216-390): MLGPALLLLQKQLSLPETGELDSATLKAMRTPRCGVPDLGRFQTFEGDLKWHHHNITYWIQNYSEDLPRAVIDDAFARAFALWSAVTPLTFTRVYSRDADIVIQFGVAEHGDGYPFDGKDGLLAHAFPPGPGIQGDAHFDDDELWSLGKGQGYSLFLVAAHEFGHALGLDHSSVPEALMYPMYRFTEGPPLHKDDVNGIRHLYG
Outline: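 Thermal shift with 3.5 μM desalted proMMP9(67-444;ΔFnII) and 50 μM 1,8-ANS in 50 mM HEPES pH 7.0, 100 mM NaCl, 0.001% Tween-20, 2.5 mM MgCl2, 300 μM CaCl2; compounds serially diluted. Heated 40–90 °C at 1 °C/min, fluorescence at 500 nm; Tm fit, binding modelled using DSC-derived thermodynamic parameters.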

[2] = biological target: T2, proMMP13(1-268) (SEQ ID NO:7) (Homo sapiens, UniProt P45452); test: ThermoFluor binding assay with proMMP13(1-268)
T2 construct: 6xHis (C); made in house; host or cells: HEK293 (transient, secreted)
Procedure: The ThermoFluor® (TF) assay is a 384-well plate-based binding assay that measures thermal stability of proteins (Biomol Screen 2001, 6, 429-40; Biochemistry 2005, 44, 5258-66). The experiments were carried out using instruments available from Johnson & Johnson Pharmaceutical Research & Development, LLC. TF dye used in all experiments was […] (1,8-ANS) (Invitrogen: A-47).
Compounds were arranged in a pre-dispensed plate (Greiner Bio-one: 781280), wherein compounds were serially diluted in 100% DMSO across 11 columns within a series. Columns 12 and 24 were used as DMSO reference and contained no compound. For multiple compound concentration-response experiments, the compound aliquots ([…]) were robotically predispensed directly into black 384-well polypropylene PCR microplates (Abgene: TF-0384/k) using a Cartesian Hummingbird liquid handler (DigiLab, Holliston, Mass.). Following compound dispense, protein and dye solutions were added to achieve the final assay volume of 3 μL. The assay solutions were overlayed with 1 μL of silicone oil (Fluka, type DC 200: 85411) to prevent evaporation.
Assay plates were robotically loaded onto a thermostatically controlled PCR-type thermal block and then heated from 40 to 90° C. at a ramp-rate of 1° C./min for all experiments. Fluorescence was measured by continuous illumination with UV light (Hamamatsu LC6) supplied via fiber optics and filtered through a band-pass filter (380-400 nm; >60D cutoff). Fluorescence emission of the entire 384-well plate was detected by measuring light intensity using a CCD camera (Sensys, Roper Scientific) filtered to detect 500±25 nm, resulting in simultaneous and independent readings of all 384 wells. A single image with 20-sec exposure time was collected at each temperature, and the sum of the pixel intensity in a given area of the assay plate was recorded vs temperature and fit to standard equations to yield the Tm (J Biomol Screen 2001, 6, 429-40).
Thermodynamic parameters necessary for fitting compound binding for each proMMP were estimated by differential scanning calorimetry (DSC) and from ThermoFluor® data. The heat capacity of unfolding for each protein was estimated from the molecular weight and from ThermoFluor® dosing data.
ThermoFluor® with proMMP13(1-268) (SEQ ID NO: 7)
The proMMP13(1-268) (SEQ ID NO:7) protein sample preparations included a desalting buffer exchange step via a PD-10 gravity column (GE Healthcare). The desalting buffer exchange was performed prior to diluting the protein to the final assay concentration of 3.5 μM. The concentration of proMMP13(1-268) (SEQ ID NO:7) was estimated spectrophotometrically based on a calculated extinction coefficient of ε280=37000 M^−1cm^−1, a calculated molecular weight of 30.8 kDa, and calculated pI of 5.33. ThermoFluor® reference conditions were defined as follows: 100 μg/mL proMMP13(1-268) (SEQ ID NO:7), 25 μM 1,8-ANS, pH 7.0 Buffer (50 mM HEPES pH 7.0, 100 mM NaCl, 0.001% Tween-20, 2.5 mM MgCl2, 300 μM CaCl2). The thermodynamic parameters for proMMP13(1-268) (SEQ ID NO:7) are as follows: Tm (° C.)=67 (+/−0.1), ΔUH(Tm) (cal mol^−1)=107000(+/−5000), ΔUS(Tm) (cal mol^−1 K^−1)=318, ΔUCp (cal mol^−1 K^−1)=2600.

[3] = biological target: T3, full-length proMMP9(1-707) (SEQ ID NO:1), activation by catalytic MMP3 (Homo sapiens, UniProt P14780, R574P); test: proMMP9/MMP3 P126 Activation Assay; format: biochemical
T3 construct: made in house; host or cells: HEK293 (proMMP9, secreted); E. coli (MMP3)
T3 sequence (P14780 20-707 R574P): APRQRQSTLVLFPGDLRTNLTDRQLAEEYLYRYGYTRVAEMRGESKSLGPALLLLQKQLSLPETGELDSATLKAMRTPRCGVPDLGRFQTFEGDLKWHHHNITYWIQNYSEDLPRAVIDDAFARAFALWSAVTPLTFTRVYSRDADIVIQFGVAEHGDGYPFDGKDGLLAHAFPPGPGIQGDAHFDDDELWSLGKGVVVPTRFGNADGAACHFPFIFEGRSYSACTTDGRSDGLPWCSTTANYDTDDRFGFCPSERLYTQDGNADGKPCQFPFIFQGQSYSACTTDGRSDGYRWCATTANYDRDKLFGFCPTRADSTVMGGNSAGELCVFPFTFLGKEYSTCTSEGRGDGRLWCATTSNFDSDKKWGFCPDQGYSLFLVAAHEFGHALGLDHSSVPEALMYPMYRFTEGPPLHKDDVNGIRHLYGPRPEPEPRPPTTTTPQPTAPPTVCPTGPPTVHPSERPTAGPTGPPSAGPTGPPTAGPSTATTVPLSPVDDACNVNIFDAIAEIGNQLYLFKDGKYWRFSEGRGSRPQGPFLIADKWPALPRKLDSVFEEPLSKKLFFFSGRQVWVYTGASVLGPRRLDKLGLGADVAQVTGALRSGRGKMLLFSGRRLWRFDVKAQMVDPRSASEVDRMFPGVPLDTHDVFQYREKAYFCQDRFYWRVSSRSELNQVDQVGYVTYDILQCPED
Procedure: proMMP9/MMP3 P126 Activation Assay
The reaction volume was 50 μL. […] Reactivity of residual MMP3 towards P-126 substrate was minimal under these conditions.

[4] = biological target: T4, proMMP9(20-445;ΔFnII) (SEQ ID NO:6) (Homo sapiens, UniProt P14780, DEL216-390); test: ThermoFluor binding assay with proMMP9(20-445;ΔFnII)
T4 construct: start methionine (N); made in house; host or cells: E. coli BL21(DE3) RIL
T4 sequence (P14780 with tags, fused parts or gaps DEL216-390): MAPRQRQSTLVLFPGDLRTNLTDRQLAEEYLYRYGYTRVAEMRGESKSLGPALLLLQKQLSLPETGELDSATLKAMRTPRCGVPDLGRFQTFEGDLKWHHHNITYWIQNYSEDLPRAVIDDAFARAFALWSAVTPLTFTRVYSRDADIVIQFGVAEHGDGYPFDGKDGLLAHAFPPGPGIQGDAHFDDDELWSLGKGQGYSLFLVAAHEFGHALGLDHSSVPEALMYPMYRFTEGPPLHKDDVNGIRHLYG
Outline: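 Thermal-shift binding using 2.8 μM proMMP9(20-445;ΔFnII) with 50 μM 1,8-ANS in 50 mM HEPES pH 7.0, 100 mM NaCl, 0.001% Tween-20, 2.5 mM MgCl2, 300 μM CaCl2. Compound serially diluted; heated 40–90 °C at 1 °C/min, fluorescence 500 nm. Tm shifts fitted using DSC/ThermoFluor-derived thermodynamic parameters.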

[5] = biological target: T5, proMMP13(1-268) (SEQ ID NO:7), activation by plasmin (Homo sapiens, UniProt P45452); test: ProMMP13/Plasmin P126 Activation Assay; format: biochemical
T5 construct: 6xHis (C); made in house; host or cells: HEK293 (proMMP13, secreted)
Procedure: ProMMP13/Plasmin P126 Activation Assay
On the day of assay, proMMP13(1-268) (SEQ ID NO:7) purified from HEK293 cells and plasmin were diluted to 160 nM and 320 nM, respectively, in assay buffer. The reaction volume was 50 μL. […] The plate was sealed and incubated for 40 min at 37° C. […] Plasmin was not reactive towards P-126 substrate under these conditions.

[6] = biological target: T6, full-length proMMP9(1-707) (SEQ ID NO:1) from COS-1 cells, activation by catalytic MMP3 (Homo sapiens, UniProt P14780, R574P); test: ProMMP9/MMP3 DQ Gelatin Activation Assay; format: biochemical; conditions: read-out: ProMMP9/MMP3 DQ gel Activation Assay, IC50
T6 construct: made in house; host or cells: COS-1 (proMMP9, secreted); E. coli (MMP3)
T6 sequence (P14780 20-707 R574P): as the sequence (P14780 20-707 R574P) above
Text: ProMMP9/MMP3 DQ Gelatin Activation Assay

Row | Structure (SMILES) | Kd [1] [nM] | Kd [2] [nM] | IC50 [3] [nM] | Kd [4] [nM] | IC50 [5] [nM] | IC50 [6] [nM]
1 | CC(C)Oc1ccc(C(N)=O)cc1Nc1nc(-c2ccc(Cl)nc2)cs1 [Example 26, 3-[4-(6-Chloro-pyridin-3-yl)-thiazol-2-ylamino]-4-isopropoxy-benzamide.TFA] | 3300 | 250 | 680 | 320 | – | –
2 | CC(C)Oc1ccc(C(N)=O)cc1Nc1nc(-c2ccc(N3CCN(C)CC3)nc2)cs1 [Example 27, 4-Isopropoxy-3-{4-[6-(4-methyl-piperazin-1-yl)-pyridin-3-yl]-thiazol-2-ylamino}-benzamide.TFA] | 380 | 280 | 150 | 39 | 900 | –
3 | COc1ccc([N+](=O)[O-])cc1Nc1nc(-c2cccnc2)cs1 [Example 60, (2-Methoxy-5-nitro-phenyl)-(4-pyridin-3-yl-thiazol-2-yl)-amine] | > 95000 | 78000 | – | > 95000 | – | 5500
